Patent publication US5407918A, “16-membered macrolide derivatives and process for producing the same” (Meiji Seika Kaisha, Ltd., priority 1992, dated 1995)
Converted amounts (≈) assume the structure as drawn. Where two headings read alike, the source gives them in different places.

What was measured:
[1] = mice; EP-A-560,147; cited from earlier work
[2] = system: some bacteria belonging to the genus Streptococcus or Branhamella; conditions: cited from earlier work
[3] = system: esterase; conditions: EP-A-560,147 derivatives; cited from earlier work
[4] = system: B. catarrhalis W-0500; assay: MIC, agar plate dilution method; type: cell-based; conditions: Moraxella catarrhalis, W0500, 37° C., 20 hours, read-out: Antimicrobial activity (MIC)
Description: (§1) Antimicrobial activities of the compounds of the present invention were determined by measuring minimum inhibitory concentration (MIC). Minimum inhibitory concentration was determined by the agar plate dilution method in the following manner.
(§2) Test strains were subjected to seed culture using Sensitivity test broth (STB, Nissui Pharmaceutical) except that the strains belonging to the genus Streptococcus, Branhamella and Haemophilus were cultured on blood agar plate. A 5 μl portion of cell suspension of the test strains having about 10^6 CFU/ml was inoculated into Sensitivity disk agar (SDA, Nissui Pharmaceutical) supplemented with 5% horse blood and incubated at 37° C. for 20 hours. Then, MIC was measured. For comparison, MDM and leucomycin A7 (LM-A7) was also tested.

[5] = system: B. catarrhalis W-0506; assay: MIC, agar plate dilution method; type: cell-based; conditions: Moraxella catarrhalis, W0506, 37° C., 20 hours, read-out: Antimicrobial activity (MIC)
Description: as §1, §2

[6] = system: E. coli NIHJ JC-2; assay: MIC, agar plate dilution method; type: cell-based; conditions: Escherichia coli, NIHJJC2; E. coli NIHJ JC-2; 37° C., 20 hours; read-out: Antimicrobial activity (MIC)
Description: as §1, §2

[7] = system: E. faecalis W-73; assay: MIC, agar plate dilution method; type: cell-based; conditions: Enterococcus faecalis, W73; E. faecalis W-73; 37° C., 20 hours; read-out: Antimicrobial activity (MIC)
Description: as §1, §2

[8] = system: H. influenzae 9334; assay: MIC, agar plate dilution method; type: cell-based; conditions: Haemophilus influenzae; H. influenzae 9334; 37° C., 20 hours; read-out: Antimicrobial activity (MIC)
Description: as §1, §2

[9] = system: K. pneumoniae PC1602; assay: MIC, agar plate dilution method; type: cell-based; conditions: Klebsiella pneumoniae, 37° C., 20 hours, read-out: Antimicrobial activity (MIC)
Description: as §1, §2

[10] = system: M. luteus ATCC9341; assay: MIC, agar plate dilution method; type: cell-based; conditions: Micrococcus luteus, read-out: Antimicrobial activity (MIC)
Description: as §1, §2

[11] = system: M. pneumoniae FH-P24; assay: MIC, agar plate dilution method; type: cell-based; conditions: Mycoplasmoides pneumoniae, FHP24, 20 h, read-out: Antimicrobial activity (MIC)
Description: as §1, §2

[12] = system: M. pneumoniae FH; assay: MIC, agar plate dilution method; type: cell-based; conditions: Mycoplasmoides pneumoniae, 20 h, read-out: Antimicrobial activity (MIC)
Description: as §1, §2

[13] = system: M. pneumoniae Mac; assay: MIC, agar plate dilution method; type: cell-based; conditions: Mycoplasmoides pneumoniae, 20 h, read-out: Antimicrobial activity (MIC)
Description: as §1, §2

[14] = system: M. pneumoniae Numata; assay: MIC, agar plate dilution method; type: cell-based; conditions: Mycoplasmoides pneumoniae, 20 h, read-out: Antimicrobial activity (MIC)
Description: as §1, §2

[15] = system: S. Pneumoniae Type 1; assay: MIC, agar plate dilution method; type: cell-based; conditions: Streptococcus pneumoniae; S. Pneumoniae Type 1; 37° C., 20 hours; read-out: Antimicrobial activity (MIC)
Description: as §1, §2

[16] = system: S. Pyogenes Cook; assay: MIC, agar plate dilution method; type: cell-based; conditions: Streptococcus pyogenes, 37° C., 20 hours, read-out: Antimicrobial activity (MIC)
Description: as §1, §2

[17] = system: S. aureus 209P JC-1; assay: MIC, agar plate dilution method; type: cell-based; conditions: Staphylococcus aureus; S. aureus 209P JC-1; 37° C., 20 hours; read-out: Antimicrobial activity (MIC)
Description: as §1, §2

[18] = system: S. aureus M126; assay: MIC, agar plate dilution method; type: cell-based; conditions: Staphylococcus aureus; S. aureus M126; 37° C., 20 hours; read-out: Antimicrobial activity (MIC)
Description: as §1, §2

[19] = system: S. aureus M133; assay: MIC, agar plate dilution method; type: cell-based; conditions: Staphylococcus aureus, 37° C., 20 hours, read-out: Antimicrobial activity (MIC)
Description: as §1, §2

[20] = system: S. aureus MS15009/pMS98; assay: MIC, agar plate dilution method; type: cell-based; conditions: Staphylococcus aureus, MS15009/PMS98, 20 h, read-out: Antimicrobial activity (MIC)
Description: as §1, §2

[21] = system: S. aureus MS15009/pMS99; assay: MIC, agar plate dilution method; type: cell-based; conditions: Staphylococcus aureus, MS15009/PMS99, 20 h, read-out: Antimicrobial activity (MIC)
Description: as §1, §2

[22] = system: S. aureus MS15026; assay: MIC, agar plate dilution method; type: cell-based; conditions: Staphylococcus aureus, 37° C., 20 hours, read-out: Antimicrobial activity (MIC)
Description: as §1, §2

[23] = system: S. aureus MS15027; assay: MIC, agar plate dilution method; type: cell-based; conditions: Staphylococcus aureus, 37° C., 20 hours, read-out: Antimicrobial activity (MIC)
Description: as §1, §2

[24] = system: S. epidermidis ATCC14990; assay: MIC, agar plate dilution method; type: cell-based; conditions: Staphylococcus epidermidis, 37° C., 20 hours, read-out: Antimicrobial activity (MIC)
Description: as §1, §2

[25] = system: S. pneumoniae IP692; assay: MIC, agar plate dilution method; type: cell-based; conditions: Streptococcus pneumoniae, read-out: Antimicrobial activity (MIC)
Description: as §1, §2

[26] = system: Gram-positive bacteria and Mycoplasma; assay: antimicrobial activity in vitro (summary in words); type: cell-based; conditions: from Table 1
Description: as §1, §2

[27] = metabolism in plasma; type: in vitro ADME, rat; conditions: no free hydroxyl group in the neutral sugar moiety formed
Description: Each test compound and 50 μl of a methanol solution (10,000 γ) were added to 950 μl of thawed rat plasma and the resulting mixture was incubated at 37° C. for 24 hours. After completion of the incubation, a 20 μl portion of the mixture was added to 980 μl of 0.05M phosphate buffer (pH 7.6). A 20 μl portion of the sample solution was used to measure antimicrobial activity against M. luteus. Separately, the calibration curve was prepared by using a methanol solution containing each test compound. The starting activity of each compound in the plasma was referred to as 100%.

[28] = system: M. luteus
Description: Each test compound and 50 μl of a methanol solution (10,000 γ) were added to 950 μl of thawed rat plasma and the resulting mixture was incubated at 37° C. for 24 hours. After completion of the incubation, a 20 μl portion of the mixture was added to 980 μl of 0.05M phosphate buffer (pH 7.6). A 20 μl portion of the sample solution was used to measure antimicrobial activity against M. luteus.

[29] = concentration in serum after oral administration to mice, bioassay; type: in vivo, mice (Jcl:ICR); conditions: mouse, serum, 200 mg/kg, M. luteus bioassay, read-out: maximum concentration in the serum
Description: The compound (3) was mixed with a 0.2% solution of carboxymethylcellulose to give a concentration of 4 mg/ml and a 1 ml portion of the resulting emulsion was orally administered to 4-week-old male Jcl:ICR mice. Blood was collected from armpit of the mice 30, 60, 120, 240 and 360 minutes after the administration of the test compound (n=2). The collected blood was allowed to stand at room temperature for about 2 hours and centrifuged for 20 minutes with a centrifuge (KUBOTA KS-5000P) to obtain serum. To the serum was added an equivalent volume of 50% CH3 CN-50 mM phosphate (1:1 by volume) buffer (pH 7.0). The resulting mixture served as a serum sample. The concentration of the test compound in the serum sample was measured by the following bioassay method.
One hundred […] of the serum sample was poured into a hole made on a test plate containing 40 ml of MRAPJ medium (6 g/l peptone, 3 g/l yeast extract, 1.5 g/l meat extract, 1 g/l glucose and 15 g/l agar, pH 6.5) supplemented with a solution of M. Iuteus ATCC9341 (1%) and incubated at 32° C. for 18 hours and MIC was measured based on the calibration curve. MOM, MDM and RKM were also tested for comparison. […] Thus a long-pending problem of "low concentration in serum" of 16-membered macrolide antibiotics has been solved. […] Thus this compound is considered as a macrolide derivative showing new pharmacokinetics.
Further, a pharmacokinetics test on the compound (12) of the present invention is carried out in the same manner as described above. Namely, 200 mg/kg of the compound (12) is orally administered to mice and the concentration of this compound in the serum is determined by a bioassay method with the use of M. luteus as a test strain. […] The disadvantage of 16-membered ring macrolide antibiotics, which has been pointed out for a long time, has been thus overcome.

[30] = recovery in urine after oral administration to mice, bioassay; type: in vivo; conditions: mouse, 200 mg/kg oral (compound (3)), urine 4 and 24 hours
Description: Subsequently, 200 mg/kg of the compound (3) was orally administered to three mice in the same manner as described above.
The three mice were put in a metabolic cage MM type (Sugiyamagen Company, Tokyo, Japan) and urine was collected 4 and 24 hours after the administration of the test compound. The collected urine was filtered through a filter having a pore size of 0.45 μm (Millipore) and was mixed with an equivalent volume of 50% CH3CN-50 mM phosphate (1:1 by volume) buffer (pH 6.5) to serve as a urine sample. The bioassay was carried out in the same manner as described above to determine the concentration of the test compound in the urine sample. The recovering in the urine was calculated according to the following equation. [formula]

[31] = pharmacokinetics of midecamycins after oral administration to mice; type: in vivo
Excerpt: First, the present inventors discussed effects of a difference in the structure at the 9-position among midecamycin analogues, from among 16-membered macrolide compounds, on pharmacokinetics. That is to say, midecamycin A1 having a hydroxyl group at the 9-position (Medemycin; MDM) [Journal of Antibiotics, 24 (7), 452 (1971)] and midecamycin A3 having a carbonyl group at the 9-position [ibid., 24 (7), 476 (1971)] were orally administered to animals (mice), followed by observing the pharmacokinetics.

Structure (SMILES): CCC(=O)O[C@@H]1CC(=O)O[C@H](C)C/C=C/C=C/C(=O)[C@H](C)C[C@H](CC=O)[C@H](O[C@@H]2O[C@H](C)[C@@H](O[C@H]3C[C@@](C)(OC)[C@@H](OCCC(C)C)[C@H](C)O3)[C@H](N(C)C)[C@H]2O)[C@H]1OC [4"-O-depropionyl-4"-O-isoamyl-3"-O-methylmidecamycin A3]
- maximum concentration in serum compared with marketed 16-membered macrolide antibiotics [1]: clearly improved
- recovery in urine compared with marketed 16-membered macrolide antibiotics [1]: clearly improved
- antimicrobial activity compared with MOM [2]: enhanced antimicrobial activity
- attack of the mycarose moiety by esterase [3]: scarcely attacked by esterase

Structure (SMILES): CCCCCCO[C@H]1[C@H](C)O[C@@H](O[C@H]2[C@H](N(C)C)[C@@H](O)[C@H](O[C@H]3[C@@H](CC=O)C[C@@H](C)[C@@H](O)/C=C/C=C/C[C@@H](C)OC(=O)C[C@@H](OC(=O)CC)[C@@H]3OC)O[C@@H]2C)C[C@@]1(C)OC [(5)]
- MIC [4]: 1.56 µg/mL (≈ 1.82 µM)
- MIC [5]: 1.56 µg/mL (≈ 1.82 µM)
- MIC [6]: > 100 µg/mL
- MIC [7]: 3.13 µg/mL (≈ 3.66 µM)
- MIC [8]: 6.25 µg/mL (≈ 7.3 µM)
- MIC [9]: > 100 µg/mL
- MIC ([10]; ATCC9341, 20 h): 0.1 µg/mL (≈ 0.117 µM)
- MIC [11]: 0.2 µg/mL (≈ 0.234 µM)
- MIC [12]: 1.56 µg/mL (≈ 1.82 µM)
- MIC [13]: 0.2 µg/mL (≈ 0.234 µM)
- MIC [14]: 0.05 µg/mL (≈ 0.0584 µM)
- MIC [15]: 0.2 µg/mL (≈ 0.234 µM)
- MIC [16]: 0.2 µg/mL (≈ 0.234 µM)
- MIC [17]: 0.39 µg/mL (≈ 0.456 µM)
- MIC [18]: > 100 µg/mL
- MIC [19]: 1.56 µg/mL (≈ 1.82 µM)
- MIC [20]: 0.78 µg/mL (≈ 0.911 µM)
- MIC [21]: > 100 µg/mL
- MIC [22]: > 100 µg/mL
- MIC [23]: 1.56 µg/mL (≈ 1.82 µM)
- MIC [24]: 1.56 µg/mL (≈ 1.82 µM)
- MIC ([25]; IP692, 20 h): 0.2 µg/mL (≈ 0.234 µM)
- antimicrobial activities on Gram-positive bacteria and Mycoplasma [26]: strong antimicrobial activities
- extent of metabolism [27]: hardly metabolized
- degree of loss of the antimicrobial activity in the plasma compared with MOM [28]: lower than that of MOM
- duration of antimicrobial activity in rat plasma [28]: extremely long-acting in rat plasma

Structure (SMILES): CCC(=O)O[C@@H]1CC(=O)O[C@H](C)C/C=C/C=C/[C@H](O)[C@H](C)C[C@H](CC=O)[C@H](O[C@@H]2O[C@H](C)[C@@H](O[C@H]3C[C@@](C)(O)[C@@H](OC(=O)CC)[C@H](C)O3)[C@H](N(C)C)[C@H]2O)[C@H]1OC [MDM, midecamycin A1, reference compound]
- MIC [4]: 3.13 µg/mL (≈ 3.85 µM)
- MIC [5]: 1.56 µg/mL (≈ 1.92 µM)
- MIC [6]: > 100 µg/mL
- MIC [7]: 3.13 µg/mL (≈ 3.85 µM)
- MIC [8]: 3.13 µg/mL (≈ 3.85 µM)
- MIC [9]: > 100 µg/mL
- MIC ([10]; M. luteus ATCC9341, 37° C., 20 hours): 0.05 µg/mL (≈ 0.0614 µM)
- MIC ([11]; M. pneumoniae FH-P24): 0.1 µg/mL (≈ 0.123 µM)
- MIC [12]: 1.56 µg/mL (≈ 1.92 µM)
- MIC [13]: 0.1 µg/mL (≈ 0.123 µM)
- MIC [14]: 0.05 µg/mL (≈ 0.0614 µM)
- MIC [15]: 0.39 µg/mL (≈ 0.479 µM)
- MIC [16]: 0.2 µg/mL (≈ 0.246 µM)
- MIC [17]: 0.39 µg/mL (≈ 0.479 µM)
- MIC [18]: > 100 µg/mL
- MIC [19]: 0.78 µg/mL (≈ 0.958 µM)
- MIC [20]: 0.39 µg/mL (≈ 0.479 µM)
- MIC [21]: > 100 µg/mL
- MIC [22]: > 100 µg/mL
- MIC [23]: 0.78 µg/mL (≈ 0.958 µM)
- MIC [24]: 1.56 µg/mL (≈ 1.92 µM)
- MIC ([25]; S. pneumoniae IP692, 37° C., 20 hours): 0.39 µg/mL (≈ 0.479 µM)
- Cmax [29]: 5200 ng/mL
- dose excreted at 24 h [30]: < 2%
- recovery in urine compared with midecamycin A3 [31]: superior to midecamycin A3
- sustained concentration in serum compared with midecamycin A3 [31]: superior to midecamycin A3
